Experimental data reported in US11247976B2, “Synthetic ligands that modulate the activity of the RhlR quorum sensing receptor” (Wisconsin Alumni Research Foundation, priority 2016, dated 2022).

molecular target: T1, RhlR (Pseudomonas aeruginosa, UniProt P54292); test: E. coli RhlR reporter antagonism assay vs 10 μM BHL (JLD271/pJN105R2/pSC11-rhlI*); type: cell-based, P. aeruginosa; conditions: read-out: % inhibition (10 μM), compound at 10 μM in the presence of 10 μM BHL; negative = agonism stronger than 10 μM BHL alone
T1 construct: expressed in transfected cells; host or cells: E. coli JLD271 (ΔsdiA) with pJN105R2 (arabinose-induced) and pSC11-rhlI*
Description: (§1) All media and reagents for bacterial culture were purchased from commercial sources. Bacteria were cultured in Luria-Bertani broth (LB) at 37° C. with shaking at 200 rpm unless otherwise noted. The bacterial reporter strains used for this study were (i) the heterologous E. coli strain JLD271 (ΔsdiA) harboring the RhlR expression plasmid pJN105R2 and the rhlI-lacZ transcriptional fusion reporter pSC11-rhlI*, (ii) the heterologous E. coli strain JLD271 (ΔsdiA) harboring the LasR expression plasmid pJN105L and the […] transcriptional fusion reporter pSC11, and (iii) the P. aeruginosa strain PAO-JP2 (ΔlasrhlI) harboring the rhlI-gfp transcriptional fusion reporter prhlI-LVAgfp. Reporter strains JLD271/pJN105R2/pSC11-rhlI* and JLD271/pJN105L/pSC11 were grown in LB containing 100 μg/mL ampicillin and 10 μg/mL gentamicin. Freezer stocks of bacterial strains were maintained at −80° C. in 1:1 LB:50% glycerol.
To evaluate the modulatory activities of library compounds on RhlR and LasR using E. coli reporters, the strains JLD271/pJN105R2/pSC11-rhlI* and JLD271/pJN105L/pSC11 were used, respectively, as previously described.^38, 51 The following modifications were used in the RhlR agonism reporter assay, non-native compounds (10 μM or 1 mM) were compared to 1 mM BHL as the positive control. Briefly, a subculture was prepared by diluting an overnight culture 1:10 with fresh media containing 100 μg/mL ampicillin and 10 μg/mL gentamicin, and was incubated until it had grown to OD600=0.45. In all assays, L-arabinose was added to a final concentration of 4 mg/mL to induce RhlR expression. For RhlR agonism assays, activities of test compounds were measured relative to 1 mM BHL (the concentration required to induce a maximal level of RhlR activity). […] Activity was measured relative to 10 μM BHL. Inhibition was calculated by subtracting 100% from the relative activity value. Thus, 0% inhibition mimics represents no competitive displacement of 10 μM BHL by a test compound. In all assays, modifications were made to the standard Miller assay protocol to accommodate the use of the chlorophenol red-β-D-galactopyranoside (CPRG) β-galactosidase substrate. After cell lysis, 150 μL of the aqueous layer was transferred from each well of a solvent-resistant 96-well microtiter plate to the wells of a new clear, flat-bottom 96-well microtiter plate. CPRG (4 mg/mL in phosphate-buffered saline) was added to each well in 25 μL volumes. Plates were incubated at 30° C. until the positive control wells developed a red color (approximately 30 min). The amount of processed CPRG substrate was assessed by measuring the absorbance of each well at 570 nm. Enzymatic activity was calculated using the following equation: adjusted Miller units=1000·Abs570/(OD600·t·V),
(§2) where t is the incubation time of substrate with lysate and V is the volume of culture lysed.
The RhlR-modulatory activity of the J library compounds was assessed in a heterologous reporter strain (E. coli JLD271 harboring plasmids pJN105R2 and pSC11-rhlI*) in order to isolate the RhlR receptor from upstream QS regulation (e.g. regulation by LasR). Thus, the extent to which compounds were directly modulating RhlR could be determined. These assays were performed by incubating compound-treated, mid-log phase E. coli reporter cells in 96-well microtiter plates, followed by Miller assay evaluation of ß-galactosidase activity.
RhlR agonism and antagonism screens of each compound were performed initially at 10 μM.

T1 sequence (P54292 whole entry): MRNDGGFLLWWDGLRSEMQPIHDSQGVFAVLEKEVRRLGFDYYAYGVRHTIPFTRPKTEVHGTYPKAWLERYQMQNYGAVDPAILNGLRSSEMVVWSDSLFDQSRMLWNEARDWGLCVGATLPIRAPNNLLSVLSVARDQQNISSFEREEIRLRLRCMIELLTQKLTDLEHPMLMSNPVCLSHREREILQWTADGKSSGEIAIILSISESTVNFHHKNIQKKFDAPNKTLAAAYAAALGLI

Compared with `CCC(C)C(=O)N[C@H]1CCOC1=O` (stereo partly drawn) [Compound J19], `CCC(CC)C(=O)N[C@H]1CCOC1=O` [Compound J22] is higher in inhibition at 10 µM: -24% for the first, 2% for the second.

Going from `CCC(C)(C)C(=O)N[C@H]1CCOC1=O` [Compound J21] to `CCCC(=O)N[C@@H]1CCOC1=O` [RN5], the inhibition at 10 µM falls from 3% to 1%.

Going from `O=C(N[C@H]1CCOC1=O)C1CC1` [Compound J23] to `O=C(CC1CC1)N[C@H]1CCOC1=O` [Compound J25], the inhibition at 10 µM falls from -2% to -47%.

First: CCCC(=O)NC1CCOC1 (stereo not drawn) [RN2]
Second: CCCC(=O)NC1CCCC1 [RN4]
The inhibition at 10 µM of the first is lower: -5% for the first, 9% for the second.

Going from `CCCS(=O)(=O)N[C@H]1CCOC1=O` [RN6] to `CCCC(=O)O[C@H]1CCOC1=O` [RN7], the inhibition at 10 µM falls from 8% to 4%.

Going from `CCCC(=O)N[C@H]1CCNC1=O` [RN9] to `CCCC(=O)NCC1CCCN1` (stereo not drawn) [RN11], the inhibition at 10 µM falls from -1% to -3%.

With `CCCC(=O)NCC1CCCO1` (stereo not drawn) [RN10] the inhibition at 10 µM was 1%.

same assay, conditions: read-out: % inhibition (1 mM), compound at 1 mM in the presence of 10 μM BHL; negative = agonism stronger than 10 μM BHL alone

Compared with `CCC(C)C(=O)N[C@H]1CCOC1=O` (stereo partly drawn) [Compound J19], `CCC(CC)C(=O)N[C@H]1CCOC1=O` [Compound J22] is higher in inhibition at 1000 µM: -101% for the first, -66% for the second.

First: CCC(C)(C)C(=O)N[C@H]1CCOC1=O [Compound J21]
Second: CCCC(=O)N[C@@H]1CCOC1=O [RN5]
The inhibition at 1000 µM of the first is lower: 7% for the first, 11% for the second.

First: O=C(N[C@H]1CCOC1=O)C1CC1 [Compound J23]
Second: O=C(CC1CC1)N[C@H]1CCOC1=O [Compound J25]
The inhibition at 1000 µM of the first is higher: -69% for the first, -108% for the second.

Going from `CCCC(=O)NC1CCOC1` (stereo not drawn) [RN2] to `CCCC(=O)NC1CCCC1` [RN4], the inhibition at 1000 µM rises from 20% to 45%.

Going from `CCCS(=O)(=O)N[C@H]1CCOC1=O` [RN6] to `CCCC(=O)O[C@H]1CCOC1=O` [RN7], the inhibition at 1000 µM falls from 55% to 6%.

Compared with `CCCC(=O)N[C@H]1CCNC1=O` [RN9], `CCCC(=O)NCC1CCCN1` (stereo not drawn) [RN11] is lower in inhibition at 1000 µM: 35% for the first, -1% for the second.

Work on `CCCC(=O)NCC1CCCO1` (stereo not drawn) [RN10] yielded an inhibition at 1000 µM of 57%.

molecular target: T1, RhlR; test: E. coli RhlR reporter agonism assay (JLD271/pJN105R2/pSC11-rhlI*); type: cell-based, P. aeruginosa; conditions: not given
Description: as §1
To evaluate the modulatory activities of library compounds on RhlR and LasR using E. coli reporters, the strains JLD271/pJN105R2/pSC11-rhlI* and JLD271/pJN105L/pSC11 were used, respectively, as previously described.^38, 51 The following modifications were used in the RhlR agonism reporter assay, non-native compounds (10 μM or 1 mM) were compared to 1 mM BHL as the positive control. Briefly, a subculture was prepared by diluting an overnight culture 1:10 with fresh media containing 100 μg/mL ampicillin and 10 μg/mL gentamicin, and was incubated until it had grown to OD600=0.45. In all assays, L-arabinose was added to a final concentration of 4 mg/mL to induce RhlR expression. For RhlR agonism assays, activities of test compounds were measured relative to 1 mM BHL (the concentration required to induce a maximal level of RhlR activity). For RhlR antagonism assays, test compounds were competed against a concentration of BHL approximately equal to its EC50 value (10 μM). Activity was measured relative to 10 μM BHL. Inhibition was calculated by subtracting 100% from the relative activity value. Thus, 0% inhibition mimics represents no competitive displacement of 10 μM BHL by a test compound. In all assays, modifications were made to the standard Miller assay protocol to accommodate the use of the chlorophenol red-β-D-galactopyranoside (CPRG) β-galactosidase substrate. After cell lysis, 150 μL of the aqueous layer was transferred from each well of a solvent-resistant 96-well microtiter plate to the wells of a new clear, flat-bottom 96-well microtiter plate. CPRG (4 mg/mL in phosphate-buffered saline) was added to each well in 25 μL volumes. Plates were incubated at 30° C. until the positive control wells developed a red color (approximately 30 min). The amount of processed CPRG substrate was assessed by measuring the absorbance of each well at 570 nm. Enzymatic activity was calculated using the following equation: adjusted Miller units=1000·Abs570/(OD600·t·V),
as §2
Because LuxR-type receptors are often unstable in solution, preventing the use of in vitro assays to directly assess small molecule agonism and antagonism, reporter gene assays represent a standard method for screening small-molecule libraries for LuxR-type receptor modulation. Previously reported strains for this purpose were used in the current study.^38 Synthetic N-butanoyl L-homoserine lactone (BHL), the native ligand of RhlR, was used as the positive control for receptor activation. Commonly, agonists are measured relative to maximum possible receptor activation within a particular assay medium;^40 because the dose-response curve of BHL is distinctly shallow in these RhlR reporters, a high concentration of BHL is required to maximally activate RhlR. In this study, activation of compounds was measured relative to that elicited by 1 mM BHL (the concentration of BHL used causes no aberrant growth effects in the reporter strain). […]

Going from `CCC(C)C(=O)N[C@H]1CCOC1=O` (stereo partly drawn) [Compound J19] to `O=C(CC1CC1)N[C@H]1CCOC1=O` [Compound J25], the EC50 falls from 7.77 µM to 2.76 µM (2.8-fold). The second is the more potent here.

same assay, conditions: compound at 10 μM; RhlR activity relative to 1 mM BHL; E. coli reporter

First: CCC(C)C(=O)N[C@H]1CCOC1=O (stereo partly drawn) [Compound J19]
Second: CCC(CC)C(=O)N[C@H]1CCOC1=O [Compound J22]
The activation at 10 µM of the first is higher: 55% for the first, 28% for the second.

First: CCC(C)(C)C(=O)N[C@H]1CCOC1=O [Compound J21]
Second: CCCC(=O)N[C@@H]1CCOC1=O [RN5]
The activation at 10 µM of the first is higher: 5% for the first, 2% for the second.

Going from `O=C(N[C@H]1CCOC1=O)C1CC1` [Compound J23] to `O=C(CC1CC1)N[C@H]1CCOC1=O` [Compound J25], the activation at 10 µM rises from 32% to 70%.

`CCCC(=O)NC1CCOC1` (stereo not drawn) [RN2] and `CCCC(=O)NC1CCCC1` [RN4] are the same in activation at 10 µM: 0% for the first, 0% for the second.

Compared with `CCCS(=O)(=O)N[C@H]1CCOC1=O` [RN6], `CCCC(=O)O[C@H]1CCOC1=O` [RN7] is lower in activation at 10 µM: 1% for the first, 0% for the second.

First: CCCC(=O)N[C@H]1CCNC1=O [RN9]
Second: CCCC(=O)NCC1CCCN1 (stereo not drawn) [RN11]
The activation at 10 µM of the first is higher: 1% for the first, 0% for the second.

For `CCCC(=O)NCC1CCCO1` (stereo not drawn) [RN10], the activation at 10 µM was 0%.

same assay, conditions: dose-response, E. coli reporter

In the case of `O=C(CC1CC1)N[C@H]1CCOC1=O` [Compound J25], the “RhlR agonist potency in words” value is reported as “significantly more potent than BHL”.

same assay, conditions: read-out: Maximum Activation (%)

`CCC(C)C(=O)N[C@H]1CCOC1=O` (stereo partly drawn) [Compound J19] and `O=C(CC1CC1)N[C@H]1CCOC1=O` [Compound J25] are the same in Emax: 95% for the first, 95% for the second.

same assay, conditions: single-concentration screen at 10 μM, E. coli reporter

With `CCC(C)C(=O)N[C@H]1CCOC1=O` (stereo partly drawn) [Compound J19] the “RhlR agonist activity in words” value was “comparable RhlR activation to that of BHL”.
`CCC(C)(C)C(=O)N[C@H]1CCOC1=O` [Compound J21] was tested, and the “RhlR agonist activity in words” value was “inactive as agonists”.
In the case of `O=C(N[C@H]1CCOC1=O)C1CC1` [Compound J23], the “RhlR agonist activity in words” value is reported as “comparably less active than their respective counterparts”.
In the case of `O=C(CC1CC1)N[C@H]1CCOC1=O` [Compound J25], the “RhlR agonist activity in words” value is reported as “strong”.
